According to ChEMBL document CHEMBL1201862, “PubChem BioAssay data set” (2004):
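Grown in 96-well plates, cells were treated for 48 hours with each compound at five concentrations. Insufficient inhibition: endpoint recorded as highest concentration tested. GI50 marks 50% less growth.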 Active and inactive are the calls of the source. Rule as the data show it: active = GI50 up to about 1.1 µM and inactive = higher.

How the values were obtained:
Test in all cases: NCI anticancer screen, dose series, 48 h
MDA-N = test system: MDA-N
UO-31 = test system: UO-31
SNB-19 = test system: SNB-19
Hs-578T = test system: Hs-578T
IGROV-1 = test system: IGROV-1
SNB-75 = test system: SNB-75
SR = test system: SR
EKVX = test system: EKVX
NCI-H23 = test system: NCI-H23
OVCAR-3 = test system: OVCAR-3
NCI-H460 = test system: NCI-H460
SK-MEL-28 = test system: SK-MEL-28
ACHN = test system: ACHN
COLO 205 = test system: COLO 205
HOP-62 = test system: HOP-62
A549 = test system: A549
SK-MEL-2 = test system: SK-MEL-2
CCRF-CEM = test system: CCRF-CEM
A498 = test system: A498
MCF7 = test system: MCF7

Measured: GI50

COc1cccc(C2c3cc4c(cc3OC(NNS(=O)(=O)c3ccc(C)cc3)C2C)OCO4)c1OC (stereo not given)
inactive: MDA-N 3.37 µM | UO-31 2.63 µM | SNB-19 3.59 µM | Hs-578T 1.83 µM | IGROV-1 2.52 µM | SNB-75 2.52 µM | SR 1.36 µM | EKVX 3.18 µM | NCI-H23 4.06 µM | OVCAR-3 1.75 µM | NCI-H460 2.67 µM | SK-MEL-28 6.98 µM | ACHN 2.77 µM | COLO 205 1.83 µM | HOP-62 2.84 µM | A549 2.62 µM | SK-MEL-2 2.31 µM | CCRF-CEM 2.03 µM | A498 2.41 µM | MCF7 2.99 µM

CCCn1cnc2c(SCC(=O)O)nc(N)nc21
inactive: MDA-N > 100 µM | UO-31 > 100 µM | SNB-19 > 100 µM | Hs-578T > 100 µM | IGROV-1 > 100 µM | SNB-75 > 100 µM | SR > 100 µM | EKVX > 100 µM | NCI-H23 > 100 µM | OVCAR-3 > 100 µM | NCI-H460 > 100 µM | SK-MEL-28 > 100 µM | ACHN > 100 µM | COLO 205 > 100 µM | HOP-62 > 100 µM | A549 > 100 µM | SK-MEL-2 > 100 µM | CCRF-CEM > 100 µM | A498 > 100 µM | MCF7 > 100 µM

O=c1cc(NCc2ccncc2)[nH]c(=O)[nH]1
inactive: MDA-N > 100 µM | UO-31 > 100 µM | SNB-19 > 100 µM | Hs-578T > 100 µM | IGROV-1 > 100 µM | SNB-75 > 100 µM | SR > 100 µM | EKVX > 100 µM | NCI-H23 > 100 µM | OVCAR-3 > 100 µM | NCI-H460 > 100 µM | SK-MEL-28 > 100 µM | ACHN > 100 µM | COLO 205 > 100 µM | HOP-62 > 100 µM | A549 > 100 µM | SK-MEL-2 > 100 µM | CCRF-CEM > 100 µM | A498 > 100 µM | MCF7 > 100 µM
